From ChEMBL document CHEMBL1201862, “PubChem BioAssay data set” (2004)
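Five concentrations, 48 hours, 96-well plates. GI50 = concentration required for 50% inhibition of growth.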 Calls of active or inactive are those of the source. Cut-off read from the data, not from the text of the source: active = GI50 up to about 1.1 µM and inactive = higher.

Tests used:
Assay in all cases: growth of human tumour cells (NCI), 48 h
[1] = test system: ACHN
[2] = test system: CCRF-CEM
[3] = test system: UO-31
[4] = test system: MOLT-4
[5] = test system: SK-MEL-5
[6] = test system: NCI/ADR-RES
[7] = test system: RXF 393
[8] = test system: SF-539
[9] = test system: KM12
[10] = test system: HOP-62
[11] = test system: SNB-75
[12] = test system: UACC-257
[13] = test system: SR
[14] = test system: SN12C
[15] = test system: SNB-19
[16] = test system: DU-145
[17] = test system: TK-10
[18] = test system: MDA-MB-231
[19] = test system: A498

| Compound | GI50 [1] | GI50 [2] | GI50 [3] | GI50 [4] | GI50 [5] | GI50 [6] | GI50 [7] | GI50 [8] | GI50 [9] | GI50 [10] | GI50 [11] | GI50 [12] | GI50 [13] | GI50 [14] | GI50 [15] | GI50 [16] | GI50 [17] | GI50 [18] | GI50 [19] |
| --- | --- | --- | --- | --- | --- | --- | --- | --- | --- | --- | --- | --- | --- | --- | --- | --- | --- | --- | --- |
| O=c1ccn(Cc2ccccc2CCl)c(=O)[nH]1 | 26.9 µM (inactive) | 30.7 µM (inactive) | 29.3 µM (inactive) | 40.6 µM (inactive) | 3 µM (inactive) | 22.1 µM (inactive) | 24 µM (inactive) | 24 µM (inactive) | 26.5 µM (inactive) | 25.7 µM (inactive) | 45.2 µM (inactive) | 25.8 µM (inactive) | 27.7 µM (inactive) | 27.6 µM (inactive) | 33.3 µM (inactive) | 32.4 µM (inactive) | 39.1 µM (inactive) | – | – |
| CCOC(=O)C1CSCCSC1 | > 100 µM (inactive) | > 100 µM (inactive) | > 100 µM (inactive) | > 100 µM (inactive) | 43.2 µM (inactive) | > 100 µM (inactive) | > 100 µM (inactive) | – | > 100 µM (inactive) | – | 43 µM (inactive) | > 100 µM (inactive) | > 100 µM (inactive) | > 100 µM (inactive) | > 100 µM (inactive) | > 100 µM (inactive) | > 100 µM (inactive) | > 100 µM (inactive) | 44.3 µM (inactive) |
| O=C1C(=O)C(CCCO)(CCCO)CCCCCCCCC1(CCCO)CCCO | > 100 µM (inactive) | – | 37.4 µM (inactive) | – | 41.1 µM (inactive) | > 100 µM (inactive) | 17.3 µM (inactive) | 80.4 µM (inactive) | 78.5 µM (inactive) | > 100 µM (inactive) | 50.1 µM (inactive) | 73.8 µM (inactive) | 18.6 µM (inactive) | > 100 µM (inactive) | 61.5 µM (inactive) | 75.7 µM (inactive) | 87.3 µM (inactive) | – | > 100 µM (inactive) |
| CCCCCCCCCCCCCCCCNc1ccn(C2CC(OP(=O)(O)OCC3OC(n4cc(CC)c(=O)[nH]c4=O)CC3O)C(CO)O2)c(=O)n1 (centres undefined) | 42.8 µM (inactive) | – | 19.2 µM (inactive) | 20.3 µM (inactive) | 2.29 µM (inactive) | 27.9 µM (inactive) | 13.7 µM (inactive) | 18.4 µM (inactive) | 15.7 µM (inactive) | 23.4 µM (inactive) | 23.3 µM (inactive) | 30.3 µM (inactive) | 22.4 µM (inactive) | 41.5 µM (inactive) | 16 µM (inactive) | 31.8 µM (inactive) | 77.3 µM (inactive) | 35.2 µM (inactive) | > 100 µM (inactive) |
| Nc1ccccc1C#CC(=O)c1cccc(C(F)(F)F)c1 | – | 0.867 µM (active) | 1.29 µM (inactive) | 2.55 µM (inactive) | 2.35 µM (inactive) | 4.89 µM (inactive) | 2.25 µM (inactive) | 3.18 µM (inactive) | 13.9 µM (inactive) | 7.24 µM (inactive) | 14.1 µM (inactive) | 15.7 µM (inactive) | 2.27 µM (inactive) | 2.06 µM (inactive) | 14.5 µM (inactive) | 3.24 µM (inactive) | 17.2 µM (inactive) | 1.95 µM (inactive) | 18.5 µM (inactive) |
| NCCCNCCSP(=O)(O)O [AMIFOSTINE] | – | 512 µM (inactive) | 535 µM (inactive) | 685 µM (inactive) | > 750 µM (inactive) | > 750 µM (inactive) | > 736 µM (inactive) | > 750 µM (inactive) | 543 µM (inactive) | > 321 µM (inactive) | > 750 µM (inactive) | > 750 µM (inactive) | – | > 750 µM (inactive) | > 750 µM (inactive) | – | – | – | > 75 µM (inactive) |
| Cn1c(/C=C/CO)c(CO)c2c1C(=O)C=C(N1CC1)C2=O [APAZIQUONE] | – | 0.184 µM (active) | 0.0142 µM (active) | 0.299 µM (active) | < 0.01 µM (active) | < 0.01 µM (active) | < 0.01 µM (active) | < 0.01 µM (active) | < 0.01 µM (active) | < 0.01 µM (active) | < 0.01 µM (active) | < 0.01 µM (active) | – | < 0.01 µM (active) | < 0.01 µM (active) | – | – | – | < 0.0124 µM (active) |
